Test: Visual evaluation of dispersibility of celecoxib powders after reconstitution in 0.01N HCl
Format: physicochemical
Procedure: The unprocessed celecoxib, the blended celecoxib, and the jet milled blended celecoxib were analyzed using visual inspection and by light microscopy (performed on a hemacytometer slide) following reconstitution in 0.01N HCl. FIGS. 5A, 5B, and 5C show the particles of the bulk celecoxib, the blended powder, and the jet-milled blended powder, respectively. The quality of the suspensions are described in Table 2.

- Visual Evaluation of Suspension: Poor suspension containing many
Compound: Cc1ccc(-c2cc(C(F)(F)F)nn2-c2ccc(S(N)(=O)=O)cc2)cc1 [Celecoxib/no blending or jet milling, celecoxib]

Reference: patent US20070148211A1, “PROCESSES FOR MAKING PARTICLE-BASED PHARMACEUTICAL FORMULATIONS FOR ORAL ADMINISTRATION” (Acusphere, Inc., priority 2005, published 2007)
